The values that follow come from patent US6998249B1, “Toxicity screening method” (priority 1999, dated 2006).

In data set [1] the test system is H4IIE cells. The experiment in a line: Cluster Analysis Toxicity Screening (CATS), combined cell number, GST, MTT and ATP assays. Format: cell-based. The source says: (§1) The test compounds were received pre-weighed into glass vials. The preparation of 20 millimolar stock solutions was accomplished by adding a sufficient amount of dimethylsulfoxide (DMSO) directly into the vials. These stocks were used to prepare 200 micromolar stock solutions in DMSO. Both the 20 millimolar and 200 micromolar, stocks were used to prepare dosing solutions of 0.05, 0.1, 1.0, 5.0, 10.0, 20.0, 50.0, 100, and 300 micromolar in culture media with a final DMSO concentration of 0.5%. The stocks and dosing solutions were prepared on the day prior to dosing. The solutions were wrapped in foil and stored at 4° C. until the next morning.
(§2) Negative controls of media plus DMSO (0.5%) were included with and without cells. A digitonin (1 mM) treated group was included as a positive control for complete cell death.
(§3) Rat hepatoma derived H4IIE cells were used as the test system. The cells were obtained from ATCC (# CRL-1548) and subcultured in the laboratory. The culture medium used for these cells was Eagle's Minimum Essential Medium (MEM) with 10% Fetal Bovine Serum (FBS) and 10% calf serum. Certified FBS and calf serum were from Gibco Life Technologies.
(§4) 96-well plates were seeded with […] in 200 microliters of media 48 hour prior to dosing. On the morning of the third day after seeding, the test compounds were added to the plates in a 200 microliter volume of medium (DMSO=0.5%).
(§5) In this Example, ketoconazole was used as the test drug. Rat hepatoma cells were seeded into 96-well culture plates and allowed to establish growth for 48 hours. Following this growth phase, the cells were treated with 0, 0.05, 0.1, 1, 5, 10, 20, 50, 100, and 300 micromolar of ketoconazole in growth medium and 0.5% DMSO. […]

Experiment in data set [2]: as above
The format is cell-based. Conditions: rat, 24 hour exposure.
From the text: as §1, §2, §3, §4, §5

Data set [3] relates to H4IIE cells. As to the kind of experiment: Cell proliferation (CYQUANT) cell number assay. Format: cell-based, rat.
Description: Cell number in each well was determined with the CYQUANT® cell proliferation kit from Molecular Probes. This assay is based on a DNA-specific binding dye that fluoresces upon interaction with DNA. Conversion to cell number is achieved by comparing sample fluorescence units to a standard curve based on fluorescence units/cell. The assay was performed essentially as described by the manufacturer with the following exceptions: The digitonin (1 mM) or Triton X 100 (1%) was added to the lysis buffer. The lysis buffer was added to the plates immediately after removing the plates from the −80° C. freezer. The plates were shaken for 20 min prior to reading the fluorescence.
Cell number was determined by establishing a calibration curve. In order to obtain fluorescence units (FU) per cell 1×10^6 cells were placed in a tube and centrifuged to a pellet. The pellet was then resuspended in 1 milliliters of a cell lysis buffer containing the DNA binding dye. Thus, one million cells in 1000 milliliters yields a relationship of 1000 cells per microliter of suspension. This provides FU/cell. Cell number for samples was determined by applying the FU obtained to the calibration curve. The percent change relative to controls was determined by dividing the treatment cell number by the control cell number and multiplying by 100.
Data set [4] can be described thus: MTT mitochondrial function assay. The format is cell-based, rat. The note with it: rat, H4IIE rat hepatoma cells; 24 hour exposure; read-out: TC50 for MTT. On the procedure: (§6) (3-(4,5-dimethylthiazol-2-yl)-2,5-diphenyl-tetrazolium bromide (MTT). After the media was removed from a plate for GST analysis, the cells remaining in each well were evaluated for their ability to reduce the tetrazolium dye to formazan via mitochondrial dehydrogenase activity. An MTT stock solution was prepared in Earl's Buffered Salt Solution (EBSS) to a final concentration of 5.0 mg/ml. This stock was diluted 10-fold with complete media (0.5 mg/ml) just prior to use and warmed to 37° C. in a water bath. In some instances the MTT powder may be added directly to complete medium to give a final concentration of 0.5-mg/ml. Once the media was removed from all wells 200 microliter, of the 0.5 mg/ml MTT solution was added to each well and the plate was allowed to incubate at 37° C. for 3-4 hours. Color development is linear over this time.
(§7) After the 3-4 hour incubation, all media was removed and the purple formazan product was extracted by adding 200 microliters, of anhydrous isopropanol. The plates were covered with foil and placed on an orbital shaker for 30 min at room temperature. Each well was aspirated with a multi-channel pipette to insure solubilization of the formzan dye and then the plate was centrifuged at 3000 rpms in a Beckman Allegra 6R centrifuge equipped with a GH3.8 rotor to remove insoluble cellular debris. Analyses were performed by transferring 100 microliters, of supernatant to a clean 96-well plate and then reading the sample absorbance at 570 nm and the reference absorbance at 650 nm with a Packard scanning spectrophotometer.
(§8) At the end of the 24 hour exposure period the media was removed and the remaining attached cells were assayed for mitochondrial function. […] Percent control values were determined by dividing the mean absorbance of the treatment group by the mean absorbance of the control group and multiplying by 100.
On the technique in general: Formazan colour is commonly taken as a measure of viable cells.

For data set [5], the system named is H4IIE cells. As to the kind of experiment: MTT mitochondrial function assay. Format: cell-based, rat. On the procedure: as §6, §7, §8
The test system of data set [6] is H4IIE cells. As to the kind of experiment: ATP assay (ATP-Lite). The format is cell-based, rat. On the procedure:
Cellular Adenosine triphosphate (ATP) was determined with the ATP-Lite kit from Packard Instruments according to the manufacturer's instructions. This assay is based on a reaction between ATP+D-luciferin+oxygen catalyzed by luciferase to yield Oxyluciferin+AMP+PPi+CO2+light. The emitted light is proportional to the amount of ATP present. Rather than a “flash” type signal which has a very short half-life, this assay utilizes a “glow” technology that extends the signal half-life to 5 hours. In addition, a unique cell lysis reagent inhibits endogenous ATPases and therefore stabilizes cellular ATP by preventing its degradation to ADP.. ATP is present in all living cells and declines rapidly upon cell death. In addition, this assay in combination with the MTT assay provides an indicator of mitochondrial activity and the energy status of the cell.
Changes in ATP may be expressed as a percent change relative to controls by dividing the mean treatment luminescence values by the control values and multiplying by 100. An actual amount of ATP can also be determined by including an ATP calibration curve in the assay and then converting the luminescence response to an ATP concentration with the regression coefficients. Finally, it is possible to estimate the amount of ATP produced per cell, by dividing the pmol ATP data by cell number. Typically, cells try to maintain a stable level of ATP and therefore this parameter is not routinely calculated unless information on the stability of the ATP pool is desired.

In data set [7] the test system is H4IIE cells. The note with it: rat, 24 h.
Description: (§9) Measurements of A-GST leakage from cultured cells into the media can be used to assess membrane integrity. This assay is specific for the alpha form of GST that exists at high concentrations in the cytosol of hepatocytes. An ELISA kit purchased from Biotrin Inc. was used to measure GST.
(§10) On the morning after dosing the cells (approximately 24 hours) the media covering the cells in each well was removed and placed into new 96-well plates with appropriate labeling. These media plates were stored at −80° C. until needed for analysis.
(§11) Leakage of the GST enzyme is determined by collecting the media in which the cells were exposed to the test compound at the end of the 24 hour exposure period. Thus, GST values represent total GST lost over the exposure period. The control for 100% dead or maximum GST release is based on cells treated with 1 mM digitonin at T0. Percent dead cells relative to digitonin treated cells was determined and then subtracted from 100 to yield the percent live cells.
The subject of data set [8] is liver. The note with it: rats; cited from earlier work.
Data set [9] deals with liver. Conditions: humans; cited from earlier work.
The test system of a further data set is isolated mitochondria. Conditions: cited from earlier work.
For data set [10], the system named is H4IIE cells. As to the kind of experiment: Glutathione S-transferase (GST) leakage assay (membrane integrity). Conditions: 6 hour exposure.
Description: as §9, §10, §11

Like-named read-outs stand apart in the source and are kept apart here.

On to `C[S+](C)[O-]` [DMSO, dimethylsulfoxide], for which the “concentrations with no effects on cell proliferation, MTT and GST” value in the data set with H4IIE cells [1] (rat) was “below 2%”.

For the molecule `C[C@@H]1[C@H](O)[C@@H](C)/C=C/C=C/C=C/C=C/C=C/C=C/C=C/[C@H](O[C@@H]2O[C@H](C)[C@@H](O)[C@H](N)[C@@H]2O)C[C@@H]2O[C@](O)(C[C@@H](O)C[C@@H](O)[C@H](O)CC[C@@H](O)C[C@@H](O)CC(=O)O[C@H]1C)C[C@H](O)[C@H]2C(=O)O` [amphotericin], in the data set on H4IIE cells [1], the “influence of final DMSO concentration on toxicity” value was “No significant differences in toxicity”.

Take `O=C(N[C@H](CO)[C@H](O)c1ccc([N+](=O)[O-])cc1)C(Cl)Cl` [chloramphenical]: the “change of TC50 with exposure time” value in the data set on H4IIE cells [1] (time course over a 72 hour exposure period, H4IIE cells) is “largest shift in TC50 values occurred between 24 and 48 hours”.

Take `CC(=O)N1CCN(c2ccc(OCC3COC(Cn4ccnc4)(c4ccc(Cl)cc4Cl)O3)cc2)CC1` (centres unmarked) [ketoconazole]: the CC50 at 24 h in data set [2] (cell number, ATP, GST, read-out: TC50 for all other endpoints (than MTT)) is over 100 µM; in data set [2] (H4IIE cells, all parameters, read-out: TC50 values) it was at least 50 µM; in [2] (H4IIE cells, cell number, GST leakage, MTT, ATP, read-out: TC50, all parameters measured), at least 50 µM; in data set [4], 70 µM. The “influence of final DMSO concentration on toxicity” value in the data set with H4IIE cells [1] is “No significant differences in toxicity”. Further, the “Ctox, estimated plasma concentration that would produce toxicity” value in the data set on H4IIE cells [1] (rat, 24 h) is 20 µM. For the same molecule, the “change of TC50 with exposure time” value in the data set on H4IIE cells [1] (rat, 72 h) is “largest shift in TC50 values occurred between 24 and 48 hours”. Moreover, the “effect on cell number” value in the data set on H4IIE cells [3] (24 hour exposure) is reported as “dose-related reduction in cell number”. The “concentration of early toxic effects in MTT assay” value in the data set on H4IIE cells [5] (24 hour exposure) is listed as “below 20 micromolar”. For the same molecule, the “effect on MTT” value in the data set on H4IIE cells [5] (24 hour exposure) is “reduced”. In addition, the “effect on ATP” value in the data set with H4IIE cells [6] is given as “reduced”. For the same molecule, the “concentration of early toxic effects in ATP assay” value with H4IIE cells [6] (rat, 24 h) is reported as “below 20 micromolar”. For the same molecule, the “concentrations at which not toxic to cells by GST leakage” value in the data set with H4IIE cells [7] is “below 300 micromolar”. In addition, the “sustained plasma concentration producing hepatic damage” value in the data set on liver [8] was 60 µM. Further, the “sustained plasma concentration resulting in liver toxicity” value with liver [9] is 30 µM. Moreover, the “effect on State III respiration” value in the data set with isolated mitochondria is “direct inhibition”.

Regarding `CC[C@H]1/C=C/C=C/C[C@@H](C)[C@H](O)[C@@](C)(O)C(=O)[C@@H](C)[C@H](O)[C@@H](C)C(=O)[C@@H](C)[C@H](O)[C@@H](C)/C=C/C(=O)O[C@@H]2[C@H](C)[C@H](CC1)O[C@]1(CC[C@H](C)[C@H](C[C@@H](C)O)O1)[C@H]2C` [oligomycin], the “effect on cell number” value in the data set on H4IIE cells [3] (6 hour exposure) is recorded as “unaffected”. The “effect on MTT” value in the data set on H4IIE cells [5] (6 hour exposure) is “significantly reduced”. For the same molecule, the “effect on ATP” value in the data set with H4IIE cells [6] (6 hour exposure) is reported as “completely depleted”. For the same molecule, the “effect on GST leakage” value in the data set on H4IIE cells [10] is reported as “unaffected”.
